# Results as given in ChEMBL document CHEMBL1201862, “PubChem BioAssay data set” (2004).
#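 Each compound was tested at five concentrations against cells in 96-well plates for 48 hours. GI50: concentration for 50% inhibition of growth.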 Calls of active or inactive are those of the source. Cut-off read from the data, not from the text of the source: active = GI50 up to about 1.1 µM and inactive = higher.
# How the values were obtained:
# Assay in all cases: DTP human tumour cell line panel, 48 h
# Malme-3M = test system: Malme-3M
# MDA-N = test system: MDA-N
# CAKI-1 = test system: CAKI-1
# DU-145 = test system: DU-145
# SNB-75 = test system: SNB-75
# MOLT-4 = test system: MOLT-4
# 786-0 = test system: 786-0
# SF-295 = test system: SF-295
# SR = test system: SR
# RPMI-8226 = test system: RPMI-8226
# A498 = test system: A498
# SN12C = test system: SN12C
# UO-31 = test system: UO-31
# KM12 = test system: KM12
# T47D = test system: T47D
# OVCAR-4 = test system: OVCAR-4
# HCT-116 = test system: HCT-116
# NCI-H23 = test system: NCI-H23
# M14 = test system: M14
# HOP-92 = test system: HOP-92
SMILES,GI50 (Malme-3M),GI50 (MDA-N),GI50 (CAKI-1),GI50 (DU-145),GI50 (SNB-75),GI50 (MOLT-4),GI50 (786-0),GI50 (SF-295),GI50 (SR),GI50 (RPMI-8226),GI50 (A498),GI50 (SN12C),GI50 (UO-31),GI50 (KM12),GI50 (T47D),GI50 (OVCAR-4),GI50 (HCT-116),GI50 (NCI-H23),GI50 (M14),GI50 (HOP-92)
O=C1NC(=S)N/C1=C\c1cc2c(=O)c3ccccc3sc2s1,> 100 µM (inactive),87.7 µM (inactive),> 100 µM (inactive),> 100 µM (inactive),26.4 µM (inactive),23.5 µM (inactive),40.2 µM (inactive),70.5 µM (inactive),22.8 µM (inactive),25.6 µM (inactive),> 100 µM (inactive),> 100 µM (inactive),58.5 µM (inactive),> 100 µM (inactive),> 100 µM (inactive),76 µM (inactive),36.4 µM (inactive),52.8 µM (inactive),–,–
CC(=O)NC1C(OCc2ccccc2)OC(CO)C(O)C1OCC(=O)NC(C)C(=O)NC(CCC(=O)NCCCCNc1ccc([N+](=O)[O-])c2[nH]c3ccccc3c(=O)c12)C(N)=O (stereo not given),> 100 µM (inactive),> 100 µM (inactive),> 100 µM (inactive),> 100 µM (inactive),43.9 µM (inactive),–,42.9 µM (inactive),34.6 µM (inactive),2.87 µM (inactive),–,> 100 µM (inactive),> 100 µM (inactive),> 100 µM (inactive),90.2 µM (inactive),> 100 µM (inactive),40.5 µM (inactive),63.7 µM (inactive),> 100 µM (inactive),71.1 µM (inactive),> 100 µM (inactive)
CC(=O)Nc1ccc(CNc2cc(=O)[nH]c(=O)[nH]2)cc1,> 100 µM (inactive),> 100 µM (inactive),> 100 µM (inactive),> 100 µM (inactive),> 100 µM (inactive),> 100 µM (inactive),> 100 µM (inactive),> 100 µM (inactive),> 100 µM (inactive),> 100 µM (inactive),–,> 100 µM (inactive),> 100 µM (inactive),> 100 µM (inactive),> 100 µM (inactive),> 100 µM (inactive),> 100 µM (inactive),> 100 µM (inactive),> 100 µM (inactive),> 100 µM (inactive)
N=C(N)n1nc2c(c1O)CCCC2,> 100 µM (inactive),> 100 µM (inactive),> 100 µM (inactive),> 100 µM (inactive),14.5 µM (inactive),> 100 µM (inactive),> 100 µM (inactive),> 100 µM (inactive),> 100 µM (inactive),> 100 µM (inactive),8.22 µM (inactive),> 100 µM (inactive),> 100 µM (inactive),> 100 µM (inactive),> 100 µM (inactive),> 100 µM (inactive),> 100 µM (inactive),> 100 µM (inactive),> 100 µM (inactive),–
Cc1nc(O)c2ncn(CCO)c2n1,> 100 µM (inactive),> 100 µM (inactive),> 100 µM (inactive),> 100 µM (inactive),> 100 µM (inactive),–,> 100 µM (inactive),> 100 µM (inactive),> 100 µM (inactive),–,> 100 µM (inactive),> 100 µM (inactive),–,> 100 µM (inactive),> 100 µM (inactive),> 100 µM (inactive),> 100 µM (inactive),> 100 µM (inactive),> 100 µM (inactive),–
O=c1c(Sc2c(SCSc3cnc4ccccc4c3Sc3c[nH]c4ccccc4c3=O)cnc3ccccc23)c[nH]c2ccccc12,–,> 100 µM (inactive),> 100 µM (inactive),> 100 µM (inactive),> 100 µM (inactive),> 100 µM (inactive),> 100 µM (inactive),> 100 µM (inactive),0.877 µM (active),14.5 µM (inactive),–,> 100 µM (inactive),> 100 µM (inactive),> 100 µM (inactive),> 100 µM (inactive),96.6 µM (inactive),> 100 µM (inactive),> 100 µM (inactive),> 100 µM (inactive),34 µM (inactive)
CCOc1ccccc1N1CSc2nnc(-c3ccccc3)n2C1,> 100 µM (inactive),> 100 µM (inactive),> 100 µM (inactive),> 100 µM (inactive),–,> 100 µM (inactive),> 100 µM (inactive),> 100 µM (inactive),44.4 µM (inactive),33.8 µM (inactive),> 100 µM (inactive),> 100 µM (inactive),> 100 µM (inactive),> 100 µM (inactive),> 100 µM (inactive),> 100 µM (inactive),53.8 µM (inactive),> 100 µM (inactive),> 100 µM (inactive),> 100 µM (inactive)
CC(=O)Nc1ccccc1NC1CC(C)N(c2ccccc2)N1C(C)=O (stereo not given),> 10 µM (inactive),> 10 µM (inactive),> 10 µM (inactive),> 10 µM (inactive),> 10 µM (inactive),> 10 µM (inactive),> 10 µM (inactive),> 10 µM (inactive),> 10 µM (inactive),> 10 µM (inactive),–,> 10 µM (inactive),–,> 10 µM (inactive),> 10 µM (inactive),> 10 µM (inactive),–,> 10 µM (inactive),> 10 µM (inactive),> 10 µM (inactive)
Clc1cc2ncn(C3CCCO3)c2cc1Cl (stereo not given),> 100 µM (inactive),> 100 µM (inactive),58.1 µM (inactive),> 100 µM (inactive),26.4 µM (inactive),54 µM (inactive),> 100 µM (inactive),> 100 µM (inactive),48.3 µM (inactive),88.9 µM (inactive),–,> 100 µM (inactive),17.7 µM (inactive),28.9 µM (inactive),66.2 µM (inactive),> 100 µM (inactive),78.5 µM (inactive),> 100 µM (inactive),> 100 µM (inactive),98.9 µM (inactive)
COc1cc(C2c3cccc4cccc(c34)C3CCC(=O)N32)cc(O)c1O (stereo not given),–,22.3 µM (inactive),–,> 50 µM (inactive),> 50 µM (inactive),12.7 µM (inactive),44.2 µM (inactive),39.9 µM (inactive),9.71 µM (inactive),11.5 µM (inactive),> 50 µM (inactive),41 µM (inactive),28.8 µM (inactive),> 50 µM (inactive),29.9 µM (inactive),12.7 µM (inactive),20.7 µM (inactive),27.1 µM (inactive),43.7 µM (inactive),> 50 µM (inactive)
Cn1cc(NC(=O)Nc2cc(C(=O)Nc3cc(C(=O)Nc4ccc(S(=O)(=O)O)c5cc(S(=O)(=O)O)ccc45)n(C)c3)n(C)c2)cc1C(=O)Nc1cc(C(=O)Nc2ccc(S(=O)(=O)O)c3cc(S(=O)(=O)O)ccc23)n(C)c1,> 100 µM (inactive),> 100 µM (inactive),–,> 100 µM (inactive),> 100 µM (inactive),> 100 µM (inactive),> 100 µM (inactive),> 100 µM (inactive),> 100 µM (inactive),> 100 µM (inactive),–,> 100 µM (inactive),> 100 µM (inactive),> 100 µM (inactive),> 100 µM (inactive),> 100 µM (inactive),> 100 µM (inactive),> 100 µM (inactive),> 100 µM (inactive),51.9 µM (inactive)
Nc1ccc(-c2nc3ccccc3s2)cc1I,99.3 µM (inactive),> 100 µM (inactive),> 100 µM (inactive),> 100 µM (inactive),41.9 µM (inactive),28.4 µM (inactive),43.9 µM (inactive),74.3 µM (inactive),42 µM (inactive),> 84.1 µM (inactive),28.6 µM (inactive),35.6 µM (inactive),14.2 µM (inactive),52.5 µM (inactive),18.7 µM (inactive),> 7.93 µM (inactive),–,64.9 µM (inactive),81.8 µM (inactive),–
COc1c(CC=C(C)C)c(O)c(C(CC(C)C)c2c(O)c(C(C)=O)c(O)c3c2OC(C(C)(C)O)C3)c(O)c1C(C)=O (stereo not given) [ACROFOLIONE A],3.81 µM (inactive),4.29 µM (inactive),3.59 µM (inactive),4.71 µM (inactive),–,3.4 µM (inactive),4.89 µM (inactive),–,2.82 µM (inactive),–,3.83 µM (inactive),3.84 µM (inactive),4.16 µM (inactive),–,3.21 µM (inactive),5.68 µM (inactive),3.68 µM (inactive),3.75 µM (inactive),5.56 µM (inactive),1.85 µM (inactive)
O=C1CSC(=S)N1 [RHODANINE],> 100 µM (inactive),> 100 µM (inactive),> 100 µM (inactive),> 100 µM (inactive),> 100 µM (inactive),> 100 µM (inactive),> 100 µM (inactive),> 100 µM (inactive),> 100 µM (inactive),> 100 µM (inactive),–,> 100 µM (inactive),> 100 µM (inactive),> 100 µM (inactive),> 100 µM (inactive),–,> 100 µM (inactive),> 100 µM (inactive),> 100 µM (inactive),> 100 µM (inactive)
Cc1cn([C@H]2C=C[C@@H](CO)O2)c(=O)[nH]c1=O [STAVUDINE],361 µM (inactive),> 1000 µM (inactive),307 µM (inactive),> 1000 µM (inactive),796 µM (inactive),> 1000 µM (inactive),652 µM (inactive),> 1000 µM (inactive),780 µM (inactive),466 µM (inactive),–,> 1000 µM (inactive),490 µM (inactive),> 1000 µM (inactive),473 µM (inactive),> 1000 µM (inactive),> 1000 µM (inactive),776 µM (inactive),> 1000 µM (inactive),679 µM (inactive)
